Laboratory results as given in paper PMC6158709, “Chemical genetic inhibition of DEAD-box proteins using covalent complementarity” (Nucleic Acids Research, 2018).

Legend:
DDX3 (132-406) = target: T1, DDX3 (132-406) (Homo sapiens, UniProt O00571); experiment: differential scanning fluorimetry; type: binding; settings: saturating AMP; 4 μM protein, pH 7.5, 5 mM MgCl2
T1 construct: gene DDX3X; truncated, residues 132-406, recombinant, purified as previously described

DDX3 (132-607) = target: T2, DDX3 (132-607) (Homo sapiens, UniProt O00571); experiment: coupled ATPase assay, RNA-dependent; type: biochemical; settings: duplex RNA; four ATP concentrations
T2 construct: gene DDX3X; helicase core, residues 132-607, recombinant, purified as previously described
T2 sequence (O00571 132-607): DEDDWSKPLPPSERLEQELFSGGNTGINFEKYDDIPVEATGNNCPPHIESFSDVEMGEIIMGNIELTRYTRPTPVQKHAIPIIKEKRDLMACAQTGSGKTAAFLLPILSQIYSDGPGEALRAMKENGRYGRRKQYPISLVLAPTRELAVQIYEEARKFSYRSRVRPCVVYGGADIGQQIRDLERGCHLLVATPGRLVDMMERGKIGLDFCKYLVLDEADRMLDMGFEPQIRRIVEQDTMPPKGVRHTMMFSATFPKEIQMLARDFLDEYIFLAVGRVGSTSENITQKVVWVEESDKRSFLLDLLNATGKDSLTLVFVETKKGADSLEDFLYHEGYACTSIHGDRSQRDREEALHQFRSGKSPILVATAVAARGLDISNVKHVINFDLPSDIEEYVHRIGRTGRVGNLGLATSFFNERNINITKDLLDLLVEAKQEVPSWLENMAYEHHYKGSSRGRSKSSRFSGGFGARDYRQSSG

HA-eIF4A^ES = target: T3, HA-eIF4A^ES (Saccharomyces cerevisiae, UniProt P10081); experiment: competition of N-propargylmaleimide labelling, click TAMRA, in gel fluorescence after HA immunoprecipitation; type: biochemical; settings: covalent; yeast lysate, 10 μM AMP-acrylate followed by 10 μM NPM
T3 construct: gene TIF1; HA-tagged ES mutant in yeast lysate, immunoprecipitated after labelling
T3 sequence (P10081 2-395): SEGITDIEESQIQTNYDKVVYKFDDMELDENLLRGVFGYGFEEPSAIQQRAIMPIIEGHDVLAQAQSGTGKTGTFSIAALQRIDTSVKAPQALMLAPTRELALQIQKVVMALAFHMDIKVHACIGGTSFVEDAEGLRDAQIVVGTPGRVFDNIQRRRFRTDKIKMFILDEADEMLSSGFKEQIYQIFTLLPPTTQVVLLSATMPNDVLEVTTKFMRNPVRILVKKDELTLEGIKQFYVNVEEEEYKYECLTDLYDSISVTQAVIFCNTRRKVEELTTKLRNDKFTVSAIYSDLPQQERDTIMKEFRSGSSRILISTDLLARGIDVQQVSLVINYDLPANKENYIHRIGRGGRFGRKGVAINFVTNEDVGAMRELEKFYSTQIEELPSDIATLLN

Dbp2 = target: T4, Dbp2 (Saccharomyces cerevisiae, UniProt P24783, S161C); experiment: RNA duplex unwinding assay; type: biochemical; settings: covalent; 0.5 μM enzyme, 2 mM ATP/MgCl2, pH 7.5, 5 min pre-incubation
T4 construct: full-length, expressed in E. coli BL21 (DE3) as 6xHis-SUMO fusion, incubated with SUMO protease
T4 sequence (P24783 whole entry S161C, the tested form may be a part): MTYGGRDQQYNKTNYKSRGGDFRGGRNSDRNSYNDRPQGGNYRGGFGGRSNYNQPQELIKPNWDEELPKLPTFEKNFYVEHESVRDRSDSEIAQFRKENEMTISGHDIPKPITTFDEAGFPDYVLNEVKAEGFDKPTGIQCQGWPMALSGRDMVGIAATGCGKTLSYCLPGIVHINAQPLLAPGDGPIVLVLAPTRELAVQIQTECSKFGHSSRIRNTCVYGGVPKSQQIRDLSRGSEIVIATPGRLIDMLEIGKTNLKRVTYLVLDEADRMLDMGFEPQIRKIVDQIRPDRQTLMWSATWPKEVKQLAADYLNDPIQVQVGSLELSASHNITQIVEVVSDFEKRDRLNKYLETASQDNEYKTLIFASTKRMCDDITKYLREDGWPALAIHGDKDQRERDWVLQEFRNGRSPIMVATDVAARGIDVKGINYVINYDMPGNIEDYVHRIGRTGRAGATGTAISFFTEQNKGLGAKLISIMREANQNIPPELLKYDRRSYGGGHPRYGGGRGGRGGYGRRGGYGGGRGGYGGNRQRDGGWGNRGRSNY

T1 sequence (O00571 132-406): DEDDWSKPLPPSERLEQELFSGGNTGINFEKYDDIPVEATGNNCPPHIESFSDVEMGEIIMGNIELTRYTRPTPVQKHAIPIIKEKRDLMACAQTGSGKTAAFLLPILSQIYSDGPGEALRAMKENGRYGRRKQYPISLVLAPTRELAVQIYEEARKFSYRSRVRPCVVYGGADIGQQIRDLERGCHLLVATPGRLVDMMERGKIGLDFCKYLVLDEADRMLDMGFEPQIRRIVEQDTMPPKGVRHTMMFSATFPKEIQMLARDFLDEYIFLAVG

With `Nc1ncnc2c1ncn2[C@@H]1O[C@H](COP(=O)(O)O)[C@@H](O)[C@H]1O` [AMP] the Tm (DDX3 (132-406)) was “Saturating concentrations of AMP stabilizes DDX3^WT and DDX3^ES to the same extent”.
For `Nc1ncnc2c1ncn2[C@@H]1O[C@H](COP(=O)(O)OP(=O)(O)OP(=O)(O)O)[C@@H](O)[C@H]1O` [ATP], the “coupled ATPase assay, RNA-dependent” value (DDX3 (132-607)) was “both DDX3^WT and DDX3^ES hydrolyzed ATP in the presence of duplex RNA”.
In the case of `C=CC(=O)OP(=O)(O)OC[C@H]1O[C@@H](n2cnc3c(N)ncnc32)[C@H](O)[C@@H]1O` [AMP-acrylate], the NPM labeling (HA-eIF4A^ES) is reported as “labeling of HA-eIF4A^ES by NPM is competed by AMP-acrylate treatment” and the “fraction of RNA duplex unwound” value (Dbp2) is reported as “duplex unwinding by ES Dbp2 (S161C) is reduced by AMP-acrylate”.
